The values that follow come from patent US7388025B2, “3-aryl-isoxazole-4-carbonyl-benzofuran derivatives” (Hoffman-La Roche Inc., priority 2005, dated 2008).

This assay has as its target T1, human GABA A receptor α5β3γ2 (Homo sapiens, UniProt P18507+P31644).
T1 construct: expressed in transfected cells; host or cells: HEK293 cells, transiently transfected; membranes prepared from them
The assay can be described thus: [3H]flumazenil competition binding, HEK293 cells expressing human GABA A α5β3γ2 receptors. Particulars: human α5β3γ2 in HEK293 (transiently transfected), 0.5 nM [3H]flumazenil, mean of two determinations; read-out: Ki[nM] hα5. As to the method: Membrane Preparation and Binding Assay
The affinity of compounds at GABA A receptor subtypes was measured by competition for [3H]flumazenil (85 Ci/mmol; Roche) binding to HEK293 cells expressing rat (stably transfected) or human (transiently transfected) receptors of composition α1β3γ2, α2β3γ2, α3β3γ2 and α5β3γ2.
Cell pellets were suspended in Krebs-tris buffer (4.8 mM KCl, 1.2 mM CaCl2, 1.2 mM MgCl2, 120 mM NaCl, 15 mM Tris; pH 7.5; binding assay buffer), homogenized by polytron for ca. 20 sec on ice and centrifuged for 60 min at 4° C. (50000 g; Sorvall, rotor: SM24=20000 rpm). The cell pellets were resuspended in Krebs-tris buffer and homogenized by polytron for ca. 15 sec on ice. Protein was measured (Bradford method, Bio-Rad) and aliquots of 1 mL were prepared and stored at −80° C.
Radioligand binding assays were carried out in a volume of […] (96-well plates) which contained […] of cell memebranes, [3H]flumazenil at a concentration of 1 nM for α1, α2, α3 subunits and 0.5 nM for α5 subunits and the test compound in the range of […]. Nonspecific binding was defined by 10^−5 M diazepam and typically represented less than 5% of the total binding. Assays were incubated to equilibrium for 1 hour at 4° C. and harvested onto GF/C uni-filters (Packard) by filtration using a Packard harvester and washing with ice-cold wash buffer (50 mM Tris; pH 7.5). After drying, filter-retained radioactivity was detected by liquid scintillation counting. Ki values were calculated using Excel-Fit (Microsoft) and are the means of two determinations.
One may read the Ki as a measure of affinity in units of concentration, obtained from inhibition or displacement. For `Cc1onc(-c2ccccc2)c1C(=O)c1cc2ccccc2o1` [Example 1, Benzofuran-2-yl-(5-methyl-3-phenyl-isoxazol-4-yl)-methanone], the Ki was found to be 15.2 nM.
As to `Cc1onc(-c2ccccc2)c1C(=O)c1cc2cccc(F)c2o1` [Example 2, (7-Fluoro-benzofuran-2-yl)-(5-methyl-3-phenyl-isoxazol-4-yl)-methanone], the Ki amounted to 17.8 nM.
`Cc1onc(-c2ccccc2)c1C(=O)c1cc2cccc(Br)c2o1` [Example 3, (7-Bromo-benzofuran-2-yl)-(5-methyl-3-phenyl-isoxazol-4-yl)-methanone]: the Ki came to 7.5 nM.
Turning to `Cc1onc(-c2ccccc2)c1C(=O)c1cc2cccc(O)c2o1` [Example 4, (7-Hydroxy-2-benzofuranyl)(5-methyl-3-phenyl-4-isoxazolyl)methanone], the Ki turned out to be 6.9 nM.
Regarding `COc1cccc2cc(C(=O)c3c(-c4ccccc4)noc3C)oc12` [Example 5, (7-Methoxy-benzofuran-2-yl)-(5-methyl-3-phenyl-isoxazol-4-yl)-methanone], the Ki was 4 nM.
Consider `CCOc1cccc2cc(C(=O)c3c(-c4ccccc4)noc3C)oc12` [Example 6, (7-Ethoxy-benzofuran-2-yl)-(5-methyl-3-phenyl-isoxazol-4-yl)-methanone], for which the Ki was 6.5 nM.
The same measure for `Cc1onc(-c2ccccc2)c1C(=O)c1cc2cccc(OCc3ccccn3)c2o1` [Example 8, (5-Methyl-3-phenyl-isoxazol-4-yl)-[7-(pyridin-2-ylmethoxy)-benzofuran-2-yl]-methanone]: 16.7 nM; for `Cc1onc(-c2ccccc2)c1C(=O)c1cc2cccc(OCc3cccnc3)c2o1` [Example 9, (5-Methyl-3-phenyl-isoxazol-4-yl)-[7-(pyridin-3-ylmethoxy)-benzofuran-2-yl]-methanone]: 31.3 nM.
Take `Cc1onc(-c2ccccc2)c1C(=O)c1cc2cccc(OCc3ccncc3)c2o1` [Example 10, (5-Methyl-3-phenyl-isoxazol-4-yl)-[7-(pyridin-4-ylmethoxy)-benzofuran-2-yl]-methanone]: the inhibition constant Ki was found to be 27.9 nM.
In the case of `Cc1onc(-c2ccccc2)c1C(=O)c1cc2cccc(OCC(=O)NC(C)C)c2o1` [Example 13, N-Isopropyl-2-[2-(5-methyl-3-phenyl-isoxazole-4-carbonyl)-benzofuran-7-yloxy]-acetamide], the Ki is 1.8 nM.
Then `Cc1onc(-c2ccccc2)c1C(=O)c1cc2cccc(OCc3ncnn3C)c2o1` [Example 14, (5-Methyl-3-phenyl-isoxazol-4-yl)-[7-(2-methyl-2H-[1,2,4]triazol-3-ylmethoxy)-benzofuran-2-yl]-methanone], with 13.8 nM; and `Cc1cc(COc2cccc3cc(C(=O)c4c(-c5ccccc5)noc4C)oc23)on1` [Example 15, [7-(3-Methyl-isoxazol-5-ylmethoxy)-benzofuran-2-yl]-(5-methyl-3-phenyl-isoxazol-4-yl)-methanone], with 18.9 nM.
As for `Cc1onc(-c2ccccc2)c1C(=O)c1cc2ccc(O)cc2o1` [Example 16, (6-Hydroxy-benzofuran-2-yl)-(5-methyl-3-phenyl-isoxazol-4-yl)-methanone], the Ki amounted to 3.7 nM.
For `COc1ccc2cc(C(=O)c3c(-c4ccccc4)noc3C)oc2c1` [Example 17, (6-Methoxy-benzofuran-2-yl)-(5-methyl-3-phenyl-isoxazol-4-yl)-methanone], the Ki worked out at 3.5 nM.
With `Cc1onc(-c2ccccc2)c1C(=O)c1cc2cc(Cl)ccc2o1` [Example 19, (5-Chloro-benzofuran-2-yl)-(5-methyl-3-phenyl-isoxazol-4-yl)-methanone], the Ki stood at 20 nM.
For `Cc1onc(-c2ccccc2)c1C(=O)c1cc2cc(Br)ccc2o1` [Example 20, (5-Bromo-benzofuran-2-yl)-(5-methyl-3-phenyl-isoxazol-4-yl)-methanone], the Ki came out at 41.6 nM.
On to `COc1ccc2oc(C(=O)c3c(-c4ccccc4)noc3C)cc2c1` [Example 22, (5-Methoxy-benzofuran-2-yl)-(5-methyl-3-phenyl-isoxazol-4-yl)-methanone], for which the Ki was 4.6 nM.
For `Cc1onc(-c2ccccc2)c1C(=O)c1cc2cc(OC(F)(F)F)ccc2o1` [Example 23, (5-Methyl-3-phenyl-isoxazol-4-yl)-(5-trifluoromethoxy-benzofuran-2-yl)-methanone], the Ki worked out at 10.1 nM.
As for `COc1cccc2oc(C(=O)c3c(-c4ccccc4)noc3C)cc12` [Example 25, (4-Methoxy-benzofuran-2-yl)-(5-methyl-3-phenyl-isoxazol-4-yl)-methanone], the Ki came out at 10.6 nM.
As to `COc1cc(OC)c2cc(C(=O)c3c(-c4ccccc4)noc3C)oc2c1` [Example 26, (4,6-Dimethoxy-benzofuran-2-yl)-(5-methyl-3-phenyl-isoxazol-4-yl)-methanone], the Ki turned out to be 4.3 nM.
With `Cc1onc(-c2ccccc2)c1C(=O)c1cc2c(ccc3ccccc32)o1` [Example 27, (5-Methyl-3-phenyl-isoxazol-4-yl)-naphtho[2,1-b]furan-2-yl-methanone], the Ki was 13.7 nM.
Regarding `Cc1onc(-c2ccc(Br)cc2)c1C(=O)c1cc2ccccc2o1` [Example 28, Benzofuran-2-yl-[3-(4-bromo-phenyl)-5-methyl-isoxazol-4-yl]-methanone], the Ki stood at 8.1 nM.
In the case of `Cc1onc(-c2ccc(Br)cc2)c1C(=O)c1cc2cccc(F)c2o1` [Example 29, [3-(4-Bromo-phenyl)-5-methyl-isoxazol-4-yl]-(7-fluoro-benzofuran-2-yl)-methanone], the Ki was determined as 11.7 nM.
As to `Cc1onc(-c2ccc(Br)cc2)c1C(=O)c1cc2cccc(O)c2o1` [Example 30, [3-(4-Bromo-phenyl)-5-methyl-isoxazol-4-yl]-(7-hydroxy-benzofuran-2-yl)-methanone], the inhibition constant Ki came out at 17.4 nM.
As for `COc1cccc2cc(C(=O)c3c(-c4ccc(Br)cc4)noc3C)oc12` [Example 31, [3-(4-Bromo-phenyl)-5-methyl-isoxazol-4-yl]-(7-methoxy-benzofuran-2-yl)-methanone], the Ki stood at 3.7 nM.
`CCOc1cccc2cc(C(=O)c3c(-c4ccc(Br)cc4)noc3C)oc12` [Example 32, [3-(4-Bromo-phenyl)-5-methyl-isoxazol-4-yl]-(7-ethoxy-benzofuran-2-yl)-methanone]: the Ki turned out to be 9.4 nM.
For `Cc1onc(-c2ccc(Br)cc2)c1C(=O)c1cc2cccc(OC(C)C)c2o1` [Example 33, [3-(4-Bromo-phenyl)-5-methyl-isoxazol-4-yl]-(7-isopropoxy-benzofuran-2-yl)-methanone], the Ki was 32.9 nM.
`Cc1onc(-c2ccc(Br)cc2)c1C(=O)c1cc2cccc(OCc3ccccn3)c2o1` [Example 34, [3-(4-Bromo-phenyl)-5-methyl-isoxazol-4-yl]-[7-(pyridin-2-ylmethoxy)-benzofuran-2-yl]-methanone]: the inhibition constant Ki turned out to be 36.3 nM.
Regarding `Cc1onc(-c2ccc(Br)cc2)c1C(=O)c1cc2cccc(OCc3cccnc3)c2o1` [Example 35, [3-(4-Bromo-phenyl)-5-methyl-isoxazol-4-yl]-[7-(pyridin-3-ylmethoxy)-benzofuran-2-yl]-methanone], the Ki is 36.4 nM.
In the case of `Cc1onc(-c2ccc(Br)cc2)c1C(=O)c1cc2cccc(OCc3ccncc3)c2o1` [Example 36, [3-(4-Bromo-phenyl)-5-methyl-isoxazol-4-yl]-[7-(pyridin-4-ylmethoxy)-benzofuran-2-yl]-methanone], the Ki worked out at 35.9 nM.
